Peptide text beside a SMILES is read from it.
Legend:
[1] = test system: human red blood cells (hRBC); assay: Hemolysis of human red blood cells; format: cell-based; settings: red cells of human, 1 h
Method in brief: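 Percent hemolysis is OD540 of peptide-treated supernatant relative to water-lysed cells. Each peptide was tested at 200 μg/mL against 20% (v/v) washed human erythrocytes. Incubation was 1 h at 37 °C, 300 rpm.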

[2] = test system: Escherichia coli MCR-1 Af 45; settings: Mueller-Hinton broth II, 18-20 hours at 35° C.
Method in brief: (§1)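 Peptides were made up as 1 mg/mL stocks in sterile water. Colonies in 0.85% saline were set to 0.5 McFarland, then diluted in cation-adjusted Mueller-Hinton II broth to about 5×10^5 CFU/mL. Inoculum was combined with two-fold serial peptide dilutions in water containing 0.002% (final) polysorbate 80.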

[3] = test system: Escherichia coli ATCC 25922; settings: ATCC 25922
Method in brief: as §1

[4] = test system: Klebsiella pneumoniae SSI3010; settings: SSI3010
Method in brief: as §1

| Structure (SMILES) | Hemolysis at 0.2 g/L [1] [%] | Escherichia coli MCR-1 Af 45 MIC [2] [mg/L] | Escherichia coli ATCC 25922 MIC [3] [mg/L] | Klebsiella pneumoniae SSI3010 MIC [4] [mg/L] |
| --- | --- | --- | --- | --- |
| CC[C@H](C)[C@H](NC(=O)[C@@H]1C[C@@H](O)CN1C(=O)[C@@H](N)C(C)C)C(=O)N[C@H](C(=O)N[C@@H](Cc1ccc(O)cc1)C(=O)N[C@@H]1C(=O)N[C@@H](CC(N)=O)C(=O)N[C@@H](CCCNC(=N)N)C(=O)N[C@@H](CCN)C(=O)N[C@@H]([C@@H](C)O)C(=O)N[C@H](CCCN)C(=O)N[C@@H](CCCCN)C(=O)N[C@H](C(=O)N[C@@H](CCN)C(=O)N[C@@H](CCCNC(=N)N)C(=O)N[C@@H](Cc2ccc(O)cc2)C(=O)O)CSSC1(C)C)[C@@H](C)O [Example 150] (HELM PEPTIDE1{V.[Hyp].I.T.Y.[Pen].N.R.[Dab].T.[NCCC[C@@H](N[*:1])C(=O)[*:2]].K.C.[Dab].R.Y}$PEPTIDE1,PEPTIDE1,6:R3-13:R3$$$V2.0) | 0 | 0.125 | 0.25 | 0.5 |
| CC[C@H](C)[C@H](NC(=O)[C@@H]1C[C@@H](O)CN1C(=O)[C@@H](N)C(C)C)C(=O)N[C@H](C(=O)N[C@@H](Cc1ccc(O)cc1)C(=O)N[C@@H]1C(=O)N[C@@H](CC(N)=O)C(=O)N[C@@H](CCCNC(=N)N)C(=O)N[C@@H](CCN)C(=O)N[C@@H]([C@@H](C)O)C(=O)N[C@H](CCCCN)C(=O)N[C@@H](CCCCN)C(=O)N[C@H](C(=O)N[C@@H](CCN)C(=O)N[C@@H](CCCNC(=N)N)C(=O)N[C@@H](Cc2ccc(O)cc2)C(=O)O)CSSC1(C)C)[C@@H](C)O [Example 151] (HELM PEPTIDE1{V.[Hyp].I.T.Y.[Pen].N.R.[Dab].T.[dK].K.C.[Dab].R.Y}$PEPTIDE1,PEPTIDE1,6:R3-13:R3$$$V2.0) | 0 | 0.25 | 0.25 | 0.5 |
| CC[C@H](C)[C@H](NC(=O)[C@@H]1C[C@@H](O)CN1C(=O)[C@@H](N)C(C)C)C(=O)N[C@H](C(=O)N[C@@H](Cc1ccc(O)cc1)C(=O)N[C@@H]1C(=O)N[C@@H](CC(N)=O)C(=O)N[C@@H](CCCNC(=N)N)C(=O)N[C@@H](CCN)C(=O)N[C@@H]([C@@H](C)O)C(=O)N[C@H](CCCNC(=N)N)C(=O)N[C@@H](CCCCN)C(=O)N[C@H](C(=O)N[C@@H](CCN)C(=O)N[C@@H](CCCNC(=N)N)C(=O)N[C@@H](Cc2ccc(O)cc2)C(=O)O)CSSC1(C)C)[C@@H](C)O [Example 152] (HELM PEPTIDE1{V.[Hyp].I.T.Y.[Pen].N.R.[Dab].T.[dR].K.C.[Dab].R.Y}$PEPTIDE1,PEPTIDE1,6:R3-13:R3$$$V2.0) | 0 | 0.25 | 0.25 | 0.25 |
| CC[C@H](C)[C@H](NC(=O)[C@@H]1C[C@@H](O)CN1C(=O)[C@@H](N)C(C)C)C(=O)N[C@@H](CCN)C(=O)N[C@@H](Cc1ccc(O)cc1)C(=O)N[C@@H]1C(=O)N[C@@H](CC(N)=O)C(=O)N[C@@H](CCCNC(=N)N)C(=O)N[C@@H](CCN)C(=O)N[C@@H]([C@@H](C)O)C(=O)N[C@H](CCN)C(=O)N[C@@H](CCCCN)C(=O)N[C@H](C(=O)N[C@@H](CCN)C(=O)N[C@H](C(=O)N[C@@H](Cc2ccc(O)cc2)C(=O)O)[C@@H](C)O)CSSC1(C)C [Example 153] (HELM PEPTIDE1{V.[Hyp].I.[Dab].Y.[Pen].N.R.[Dab].T.[NCC[C@@H](N[*:1])C(=O)[*:2]].K.C.[Dab].T.Y}$PEPTIDE1,PEPTIDE1,6:R3-13:R3$$$V2.0) | 0 | 0.5 | 0.125 | 0.5 |
| CC[C@H](C)[C@H](NC(=O)[C@@H]1C[C@@H](O)CN1C(=O)[C@@H](N)C(C)C)C(=O)N[C@@H](CCCNC(=N)N)C(=O)N[C@@H](Cc1ccc(O)cc1)C(=O)N[C@@H]1C(=O)N[C@@H](CC(N)=O)C(=O)N[C@@H](CCCNC(=N)N)C(=O)N[C@@H](CCN)C(=O)N[C@@H]([C@@H](C)O)C(=O)N[C@H](CCN)C(=O)N[C@@H](CCCCN)C(=O)N[C@H](C(=O)N[C@@H](CCN)C(=O)N[C@H](C(=O)N[C@@H](Cc2ccc(O)cc2)C(=O)O)[C@@H](C)O)CSSC1(C)C [Example 154] (HELM PEPTIDE1{V.[Hyp].I.R.Y.[Pen].N.R.[Dab].T.[NCC[C@@H](N[*:1])C(=O)[*:2]].K.C.[Dab].T.Y}$PEPTIDE1,PEPTIDE1,6:R3-13:R3$$$V2.0) | 0 | 0.25 | 0.25 | 0.5 |
| CC[C@H](C)[C@H](NC(=O)[C@@H]1C[C@@H](O)CN1C(=O)[C@@H](N)C(C)C)C(=O)N[C@@H](Cc1ccc(O)cc1)C(=O)N[C@@H](Cc1ccc(O)cc1)C(=O)N[C@@H]1C(=O)N[C@@H](CC(N)=O)C(=O)N[C@@H](CCCNC(=N)N)C(=O)N[C@@H](CCN)C(=O)N[C@@H]([C@@H](C)O)C(=O)N[C@H](CCN)C(=O)N[C@@H](CCCCN)C(=O)N[C@H](C(=O)N[C@@H](CCN)C(=O)N[C@@H](CCCNC(=N)N)C(=O)N[C@@H](Cc2ccc(O)cc2)C(=O)O)CSSC1(C)C [Example 155] (HELM PEPTIDE1{V.[Hyp].I.Y.Y.[Pen].N.R.[Dab].T.[NCC[C@@H](N[*:1])C(=O)[*:2]].K.C.[Dab].R.Y}$PEPTIDE1,PEPTIDE1,6:R3-13:R3$$$V2.0) | 0 | 0.0625 | 0.125 | 0.25 |
| CC[C@H](C)[C@H](NC(=O)[C@@H]1C[C@@H](O)CN1C(=O)[C@@H](N)C(C)C)C(=O)N[C@@H](CC(C)C)C(=O)N[C@@H](Cc1ccc(O)cc1)C(=O)N[C@@H]1C(=O)N[C@@H](CC(N)=O)C(=O)N[C@@H](CCCNC(=N)N)C(=O)N[C@@H](CCN)C(=O)N[C@@H]([C@@H](C)O)C(=O)N[C@H](CCN)C(=O)N[C@@H](CCCCN)C(=O)N[C@H](C(=O)N[C@@H](CCN)C(=O)N[C@@H](CCCNC(=N)N)C(=O)N[C@@H](Cc2ccc(O)cc2)C(=O)O)CSSC1(C)C [Example 156] (HELM PEPTIDE1{V.[Hyp].I.L.Y.[Pen].N.R.[Dab].T.[NCC[C@@H](N[*:1])C(=O)[*:2]].K.C.[Dab].R.Y}$PEPTIDE1,PEPTIDE1,6:R3-13:R3$$$V2.0) | 0 | 0.25 | 0.25 | 0.5 |
| CC[C@H](C)[C@H](NC(=O)[C@@H]1C[C@@H](O)CN1C(=O)[C@@H](N)C(C)C)C(=O)N[C@@H](CC(N)=O)C(=O)N[C@@H](Cc1ccc(O)cc1)C(=O)N[C@@H]1C(=O)N[C@@H](CC(N)=O)C(=O)N[C@@H](CCCNC(=N)N)C(=O)N[C@@H](CCN)C(=O)N[C@@H]([C@@H](C)O)C(=O)N[C@H](CCN)C(=O)N[C@@H](CCCCN)C(=O)N[C@H](C(=O)N[C@@H](CCN)C(=O)N[C@@H](CCCNC(=N)N)C(=O)N[C@@H](Cc2ccc(O)cc2)C(=O)O)CSSC1(C)C [Example 157] (HELM PEPTIDE1{V.[Hyp].I.N.Y.[Pen].N.R.[Dab].T.[NCC[C@@H](N[*:1])C(=O)[*:2]].K.C.[Dab].R.Y}$PEPTIDE1,PEPTIDE1,6:R3-13:R3$$$V2.0) | 0 | 0.125 | 0.125 | 0.5 |
| CC[C@H](C)[C@H](NC(=O)[C@@H]1C[C@@H](O)CN1C(=O)[C@@H](N)C(C)C)C(=O)N[C@@H](CCN)C(=O)N[C@@H](Cc1ccc(O)cc1)C(=O)N[C@@H]1C(=O)N[C@@H](CC(N)=O)C(=O)N[C@@H](CCCNC(=N)N)C(=O)N[C@@H](CCN)C(=O)N[C@@H]([C@@H](C)O)C(=O)N[C@H](CCN)C(=O)N[C@@H](CCCCN)C(=O)N[C@H](C(=O)N[C@@H](CCN)C(=O)N[C@@H](CCCNC(=N)N)C(=O)N[C@@H](Cc2ccc(O)cc2)C(=O)O)CSSC1(C)C [Example 158] (HELM PEPTIDE1{V.[Hyp].I.[Dab].Y.[Pen].N.R.[Dab].T.[NCC[C@@H](N[*:1])C(=O)[*:2]].K.C.[Dab].R.Y}$PEPTIDE1,PEPTIDE1,6:R3-13:R3$$$V2.0) | 0 | 0.125 | 0.125 | 0.5 |
| CC[C@H](C)[C@H](NC(=O)[C@@H]1C[C@@H](O)CN1C(=O)[C@@H](N)C(C)C)C(=O)N[C@@H](CCCCN)C(=O)N[C@@H](Cc1ccc(O)cc1)C(=O)N[C@@H]1C(=O)N[C@@H](CC(N)=O)C(=O)N[C@@H](CCCNC(=N)N)C(=O)N[C@@H](CCN)C(=O)N[C@@H]([C@@H](C)O)C(=O)N[C@H](CCN)C(=O)N[C@@H](CCCCN)C(=O)N[C@H](C(=O)N[C@@H](CCN)C(=O)N[C@@H](CCCNC(=N)N)C(=O)N[C@@H](Cc2ccc(O)cc2)C(=O)O)CSSC1(C)C [Example 159] (HELM PEPTIDE1{V.[Hyp].I.K.Y.[Pen].N.R.[Dab].T.[NCC[C@@H](N[*:1])C(=O)[*:2]].K.C.[Dab].R.Y}$PEPTIDE1,PEPTIDE1,6:R3-13:R3$$$V2.0) | 0 | 0.25 | 0.125 | 0.5 |

Reference: patent publication US20230295234A1, “ANTIMICROBIAL PEPTIDOMIMETICS” (SPEXIS AG, priority 2020, published 2023)
